Assay results as given in patent US9850542B2, “Gene signature to predict homologous recombination (HR) deficient cancer” (Board of Regents, The University of Texas System, priority 2013, dated 2017).

Key:
HCC1937 = assay: Drug combination study by MTT assay (combination index, CompuSyn); assay type: cell-based, human
Protocol: Cell Proliferation Assay. Cell proliferation was measured by MTT (3-(4,5-dimethylthiazol-2-yl)-2,5-diphenyltetrazolium bromide; Sigma) reduction. To test the cell proliferation rate, 500-1×10^4 cells/well were seeded in a 96-well plate in a total volume of 100 μL in triplicate in each experiment. The next day, cells were treated with indicated concentrations of drugs. Five days later, 20 μL of MTT substrate (2 mg/mL) was added to each well and incubated with cells for 3 hr. Then the culture medium was removed, and 100 μL of dimethyl sulfoxide was added. Plates were read at 490 nm and 650 nm (background) in a microplate reader (Molecular Devices). After subtraction of background, the cell viability was calculated as fold change relative to control cells. The OD values were analyzed with Graphpad Prism 6.0 software. Each value is relative to the value in the cells treated with vehicle control. Results are shown as mean±SEM from three independent experiments.
Drug Combination Studies. […] CI<1 indicated synergism, and CI=1 and CI>1 indicated additive and antagonism, respectively.

[1] = test system: BRCA-negative patients with advanced-stage triple-negative breast cancer; conditions: 15 BRCA-negative patients, advanced-stage TNBC; cited from earlier work
BRCA mutation carriers = conditions: phase I, oral monotherapy; cited from earlier work
[2] = test system: breast cancer patients with BRCA1/2 mutations; conditions: phase II; cited from earlier work
[3] = test system: cancer cell lines with and without the HRD gene signature; assay: Colony formation and MTT assay in cancer cell lines with intact or defective HR; assay type: cell-based, human; conditions: prostate, renal, lung, ovarian, breast cancer lines; colony formation, MTT
Protocol: FIGS. 2A-D. The HRD Gene Signature Predicts Sensitivity to PARP Inhibitors in Cancer Cells. (A) Cell lines with intact HR (I) and defective HR (D) were selected for five cancer types as follows: prostate cancer: PC-3 (D) and DU-145 (I); renal cancer: ACHN (D) and 7860-O (I); lung cancer: H266 (D) and H522 (I); ovarian cancer: OVCAR-3 (D) and OVCAR-8 (I); and breast cancer: MCF7 (D), MDA-MB-231 (I), and HCC1937 […]. Modified HR repair assay was performed by transfecting cells with DRGFP DSB substrate plasmid and I-SceI plasmid through electroporation at 270V, 975uF using a BioRad genepulsar II. Flow cytometry analysis was performed 48 to 72 hours later to detect GFP-positive cells. […] (B-D) Colony formation assay was performed with the indicated concentrations of olaparib (B) or rucaparib (C), or (D) cell lines were seeded in 96-well plates, treated with olaparib at the indicated concentrations for 5 days, and then analyzed by MTT assay. […]
Cell Proliferation Assay. Cell proliferation was measured by MTT (3-(4,5-dimethylthiazol-2-yl)-2,5-diphenyltetrazolium bromide; Sigma) reduction. […] Plates were read at 490 nm and 650 nm (background) in a microplate reader (Molecular Devices). After subtraction of background, the cell viability was calculated as fold change relative to control cells. The OD values were analyzed with Graphpad Prism 6.0 software. […]

MCF-10A cells = assay: Colony formation assay in MCF-10A knockdown cell lines; assay type: cell-based, human
Protocol: FIGS. 3A-C. Loss of PTEN Reverses HRD and Confers PARP Inhibitor Resistance to BRCA1-Depleted Cells through Over-expression of TTK. (A) Modified HR repair assay was performed in MCF-10A cells by transfecting cells with DRGFP DSB substrate plasmid and I-SceI plasmid through electroporation, followed by analysis of GFP-positive cells by flow cytometry 48 to 72 hours later. Each value is relative to the percentage of GFP-positive cells in I-SceI-transfected control cells. Results are show as mean±SD from three independent experiments. Student's t-test was performed from results of three independent experiments. (B) Cells were seeded at a very low density and treated with indicated concentrations of olaparib for 10 to 15 days to allow colony formation. The rate of cell survival in response to olaparib was determined by colony formation assay. Each value was relative to control cells without treatment and represents the mean±SD from three independent experiments. […] (C) Quantitative analysis of HR repair assay in cells transfected with TTK plasmids or the indicated siRNAs. Each value is relative to the percentage of GFP-positive cells in I-SceI-transfected control cells. Results are shown as mean±SD from three independent experiments. […] BRCA1 SMARTpool siRNA was used as a positive control.
FIGS. 11A-B. The HRD Gene Signature Predicts HR-deficiency and Sensitivity to PARP Inhibitors in Cancer Cells. (A) Cells were seeded in a very low density and treated with indicated concentrations of PARP inhibitor olaparib for 10-15 days to allow colony formation. The rate of cell survival was determined by colony-formation assay. Colonies were stained with 0.25% crystal violet/25% methanol and counted both manually and digitally using ImageJ software. […]
Colony Forming Assay. […] Colonies were counted manually (colonies containing 50 or more cells were counted) or digitally using ImageJ software with customized parameters optimized based on three preliminary manual counts or blindly chosen. […]

[4] = test system: BRCA1/2 mutation carriers with recurrent ovarian cancer; conditions: phase II; cited from earlier work
HCC1937 cells = assay: Apoptosis analysis; assay type: cell-based, human; conditions: olaparib plus TTK inhibitor, 48 hours
Protocol: FIGS. 14A-B. TTK inhibitor enhances apoptosis induced by PARP inhibitor. (A) TTK expression levels in basal-like or luminal breast cancer cell lines and immortal human mammalian epithelial cells. Cell lysates were harvested from indicated cell lines and subjected to Western blot analysis. (B) HCC1937 cells were treated with olaparib, or combined with TTK inhibitor AZ3146 for 48 hours and subjected to apoptosis analysis. Each value represents the mean±SD from three independent experiments.

CCNC(=O)c1noc(-c2cc(C(C)C)c(O)cc2O)c1-c1ccc(CN2CCOCC2)cc1 [AUY922]
synergistic effect on PARP inhibitor treatment (HCC1937; MTT): synergistic effect
synergy compared with vorinostat combinations (HCC1937; combinations with PARP inhibitors): relatively higher synergy

O=C(c1cc(Cc2n[nH]c(=O)c3ccccc23)ccc1F)N1CCN(C(=O)C2CC2)CC1 [olaparib]
complete or partial responses [1]: no complete or partial responses
BRCA mutation carriers that did not respond (BRCA mutation carriers): more than 35%
response rate [2]: 41%
sensitivity of cell lines with the HRD gene signature compared with cell lines with intact HR repair [3]: more sensitive
sensitization by BRCA1-PTEN double knockdown (MCF-10A cells; MCF-10A double knockdown cells): did not sensitize cells
cellular sensitivity of BRCA1-, RAD51- and BRIT1-deficient cells (MCF-10A cells; MCF-10A knockdown vs control cells, 10-15 days): greatly increased cellular sensitivity
sensitization by BRCA1 or PTEN deficiency (MCF-10A cells; MCF-10A single knockdown cells): sensitized cells
objective response rate [4]: 33%

CNCc1ccc(-c2[nH]c3cc(F)cc4c3c2CCNC4=O)cc1 [rucaparib]
sensitivity of cell lines with the HRD gene signature compared with cell lines with intact HR repair [3]: more sensitive

AZ3146
apoptosis (HCC1937 cells): enhanced olaparib-induced apoptosis
